Measurements: article PMC10649086 (Antimicrobial Agents and Chemotherapy, 2023)
Like-named read-outs stand apart in the source and are kept apart here.

Key:
SARS-CoV-2 [1] = conditions: in vivo; cited from earlier work
cathepsin B = cathepsin B (Homo sapiens, UniProt P07858); assay: biochemical
chymotrypsin C = chymotrypsin C (Homo sapiens, UniProt Q99895); format: biochemical
CoV-229E M^pro = molecular target: T1, CoV-229E M^pro (Human coronavirus 229E, UniProt P0C6X1); assay: biochemical
T1 construct: M^pro proteins from other human CoVs were also cloned, expressed in E. coli and purified by WuXi AppTec; host or cells: E. coli
T1 sequence (P0C6X1 2966-3267 limits assumed): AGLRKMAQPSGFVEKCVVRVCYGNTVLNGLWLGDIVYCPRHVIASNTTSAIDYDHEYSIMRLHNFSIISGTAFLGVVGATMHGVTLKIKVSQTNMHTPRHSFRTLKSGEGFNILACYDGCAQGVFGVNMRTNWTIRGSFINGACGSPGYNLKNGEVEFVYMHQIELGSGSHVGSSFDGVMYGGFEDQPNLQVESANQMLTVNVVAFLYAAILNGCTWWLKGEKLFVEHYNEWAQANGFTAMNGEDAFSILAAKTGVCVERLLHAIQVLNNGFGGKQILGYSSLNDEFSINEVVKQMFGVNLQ

elastase = format: biochemical, human
SARS-CoV-2 Delta = assay: microbe, parasite or virus in culture; format: cell-based
[2] = system: SARS-CoV-2 BA.5.2.1 Omicron; assay: microbe, parasite or virus in culture; format: cell-based
dipeptidyl peptidase IV = dipeptidyl peptidase IV (Homo sapiens, UniProt P27487); format: biochemical
dipeptidyl peptidase IV, sequence (P27487 whole entry): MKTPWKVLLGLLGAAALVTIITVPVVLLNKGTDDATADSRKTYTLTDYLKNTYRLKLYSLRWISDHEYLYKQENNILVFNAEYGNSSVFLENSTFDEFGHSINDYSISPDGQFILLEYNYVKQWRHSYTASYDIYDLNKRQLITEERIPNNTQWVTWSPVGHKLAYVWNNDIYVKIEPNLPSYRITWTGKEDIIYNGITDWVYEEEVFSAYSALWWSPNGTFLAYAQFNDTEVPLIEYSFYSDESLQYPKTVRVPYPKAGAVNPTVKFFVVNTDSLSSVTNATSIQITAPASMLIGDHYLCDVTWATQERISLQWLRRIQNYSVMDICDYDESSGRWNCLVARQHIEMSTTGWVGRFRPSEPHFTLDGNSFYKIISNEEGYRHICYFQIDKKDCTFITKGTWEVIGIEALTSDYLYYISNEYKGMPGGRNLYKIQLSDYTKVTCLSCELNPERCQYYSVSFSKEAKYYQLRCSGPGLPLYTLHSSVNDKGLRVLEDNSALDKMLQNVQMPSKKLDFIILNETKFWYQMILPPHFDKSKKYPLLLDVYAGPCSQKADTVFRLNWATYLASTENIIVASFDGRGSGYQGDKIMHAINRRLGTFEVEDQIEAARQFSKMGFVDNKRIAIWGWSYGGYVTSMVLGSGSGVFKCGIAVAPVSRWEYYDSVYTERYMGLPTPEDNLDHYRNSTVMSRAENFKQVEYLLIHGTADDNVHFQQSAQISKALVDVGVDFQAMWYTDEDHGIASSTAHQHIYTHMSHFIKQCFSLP

SARS-CoV-2 Alpha = assay: microbe, parasite or virus in culture; format: cell-based
[3] = system: SARS-CoV-2 Wuhan replicon (WT); assay: microbe, parasite or virus in culture; format: cell-based
cathepsin D = cathepsin D (Homo sapiens, UniProt P07339); format: biochemical
cathepsin D, sequence (P07339 65-412): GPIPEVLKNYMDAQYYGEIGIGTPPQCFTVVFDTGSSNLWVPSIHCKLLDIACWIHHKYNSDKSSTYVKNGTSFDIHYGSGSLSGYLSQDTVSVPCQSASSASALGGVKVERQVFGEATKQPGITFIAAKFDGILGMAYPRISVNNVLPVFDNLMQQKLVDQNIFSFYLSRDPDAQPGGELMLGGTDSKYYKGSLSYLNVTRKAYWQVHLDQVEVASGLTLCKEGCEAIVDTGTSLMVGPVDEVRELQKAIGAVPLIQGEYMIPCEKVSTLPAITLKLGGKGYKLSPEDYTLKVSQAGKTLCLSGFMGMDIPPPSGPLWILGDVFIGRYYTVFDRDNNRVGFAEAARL

SARS-CoV-2 BA.2 Omicron = assay: microbe, parasite or virus in culture; format: cell-based
SARS-CoV-2 Mu = assay: microbe, parasite or virus in culture; format: cell-based
SARS-CoV-2 WA1 NLuc = assay: microbe, parasite or virus in culture; format: cell-based
calpain1 = calpain1 (Homo sapiens, UniProt P07384); format: biochemical
calpain1, sequence (P07384 whole entry): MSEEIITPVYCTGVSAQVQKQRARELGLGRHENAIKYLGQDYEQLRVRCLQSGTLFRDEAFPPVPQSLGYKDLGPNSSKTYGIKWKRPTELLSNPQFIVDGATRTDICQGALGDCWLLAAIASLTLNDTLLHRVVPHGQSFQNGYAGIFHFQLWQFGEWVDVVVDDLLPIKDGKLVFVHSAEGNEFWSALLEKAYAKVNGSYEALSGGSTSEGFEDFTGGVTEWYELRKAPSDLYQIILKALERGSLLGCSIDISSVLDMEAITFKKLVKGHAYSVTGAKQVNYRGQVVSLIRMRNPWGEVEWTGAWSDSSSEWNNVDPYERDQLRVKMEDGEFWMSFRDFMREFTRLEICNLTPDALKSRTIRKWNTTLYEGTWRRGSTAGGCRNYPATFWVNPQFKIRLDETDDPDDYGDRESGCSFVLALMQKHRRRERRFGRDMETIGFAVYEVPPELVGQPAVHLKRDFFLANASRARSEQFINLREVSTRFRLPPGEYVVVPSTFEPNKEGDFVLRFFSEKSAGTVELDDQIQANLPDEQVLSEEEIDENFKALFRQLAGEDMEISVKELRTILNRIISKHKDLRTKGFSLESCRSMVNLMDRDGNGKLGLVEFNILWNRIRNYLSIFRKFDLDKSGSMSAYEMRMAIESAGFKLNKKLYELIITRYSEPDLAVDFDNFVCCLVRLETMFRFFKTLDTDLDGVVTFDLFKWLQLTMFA
calpain1, sequence (P04632 whole entry, further chain): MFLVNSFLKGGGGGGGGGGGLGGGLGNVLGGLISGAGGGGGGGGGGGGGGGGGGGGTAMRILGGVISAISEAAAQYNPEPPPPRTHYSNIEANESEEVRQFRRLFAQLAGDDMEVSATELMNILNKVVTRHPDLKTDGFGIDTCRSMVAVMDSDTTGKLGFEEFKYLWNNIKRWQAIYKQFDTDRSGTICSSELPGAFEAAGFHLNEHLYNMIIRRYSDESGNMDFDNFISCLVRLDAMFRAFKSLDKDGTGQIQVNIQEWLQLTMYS

caspase 3 = caspase 3 (Homo sapiens, UniProt P42574); format: biochemical
caspase 3, sequence (P42574 29-175): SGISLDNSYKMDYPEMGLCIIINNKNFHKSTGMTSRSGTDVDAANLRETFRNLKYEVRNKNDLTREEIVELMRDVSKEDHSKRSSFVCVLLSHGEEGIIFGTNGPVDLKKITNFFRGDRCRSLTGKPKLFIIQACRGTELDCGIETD
caspase 3, sequence (P42574 176-277): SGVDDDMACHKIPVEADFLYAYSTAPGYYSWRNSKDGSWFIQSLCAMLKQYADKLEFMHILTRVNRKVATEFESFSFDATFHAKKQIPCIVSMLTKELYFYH

SARS-CoV-2 Epsilon = assay: microbe, parasite or virus in culture; format: cell-based
SARS-CoV-2 [4] = conditions: human, in vivo; cited from earlier work
[5] = system: SARS-CoV-2 BA.4.1 Omicron; assay: microbe, parasite or virus in culture; format: cell-based
CoV-229E = assay: organism not typed; format: cell-based
CoV-OC43 = assay: organism not typed; format: cell-based
SARS-CoV-2 M^pro = molecular target: T2, SARS-CoV-2 M^pro (Severe acute respiratory syndrome coronavirus 2, UniProt P0DTC1); format: biochemical
T2 construct: composed of about 300 amino acids embedded in the polyproteins as the nsp5 domain; purchased BPS Biosciences

cathepsin S = cathepsin S (Homo sapiens, UniProt P25774); assay: biochemical
cathepsin S, sequence (P25774 115-331): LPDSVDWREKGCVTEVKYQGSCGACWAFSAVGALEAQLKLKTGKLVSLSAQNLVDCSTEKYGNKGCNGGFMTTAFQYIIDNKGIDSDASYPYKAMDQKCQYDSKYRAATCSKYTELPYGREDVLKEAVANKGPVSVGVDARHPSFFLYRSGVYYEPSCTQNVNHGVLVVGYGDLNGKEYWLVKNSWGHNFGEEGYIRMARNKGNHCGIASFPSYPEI

[6] = system: SARS-CoV-2 BA.1.1 Omicron; assay: microbe, parasite or virus in culture; format: cell-based
caspase-2 = caspase-2 (Homo sapiens, UniProt P42575); format: biochemical
caspase-2, sequence (P42575 170-325): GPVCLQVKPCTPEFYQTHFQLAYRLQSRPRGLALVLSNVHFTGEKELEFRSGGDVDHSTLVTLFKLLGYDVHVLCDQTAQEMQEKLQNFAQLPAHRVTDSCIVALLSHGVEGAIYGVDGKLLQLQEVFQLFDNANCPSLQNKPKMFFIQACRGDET
caspase-2, sequence (P42575 348-452): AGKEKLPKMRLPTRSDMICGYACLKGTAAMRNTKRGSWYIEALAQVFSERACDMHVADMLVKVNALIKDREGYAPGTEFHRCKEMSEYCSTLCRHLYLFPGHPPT

CoV-NL63 M^pro = molecular target: T3, CoV-NL63 M^pro (Human coronavirus NL63, UniProt P0C6X5); assay: biochemical
T3 construct: M^pro proteins from other human CoVs were also cloned, expressed in E. coli and purified by WuXi AppTec; host or cells: E. coli
T3 sequence (P0C6X5 2940-3242 limits assumed): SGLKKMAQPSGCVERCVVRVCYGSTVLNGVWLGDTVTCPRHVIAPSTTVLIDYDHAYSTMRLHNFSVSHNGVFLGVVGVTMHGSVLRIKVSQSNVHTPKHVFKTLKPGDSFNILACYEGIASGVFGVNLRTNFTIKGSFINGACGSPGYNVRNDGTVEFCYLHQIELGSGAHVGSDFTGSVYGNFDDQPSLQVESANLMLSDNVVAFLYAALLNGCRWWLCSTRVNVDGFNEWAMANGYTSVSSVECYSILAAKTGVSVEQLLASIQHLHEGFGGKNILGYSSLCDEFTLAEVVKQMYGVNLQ

SARS-CoV-2 AY.20 Delta = assay: microbe, parasite or virus in culture; format: cell-based
cathepsin K = cathepsin K (Homo sapiens, UniProt P43235); assay: biochemical
cathepsin K, sequence (P43235 115-329): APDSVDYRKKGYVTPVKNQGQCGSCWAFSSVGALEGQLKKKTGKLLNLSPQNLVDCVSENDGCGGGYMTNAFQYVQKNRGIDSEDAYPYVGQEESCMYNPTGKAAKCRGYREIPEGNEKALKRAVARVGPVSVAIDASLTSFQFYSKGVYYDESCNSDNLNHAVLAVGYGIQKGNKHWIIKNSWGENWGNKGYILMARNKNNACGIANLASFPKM

thrombin = thrombin (Homo sapiens, UniProt P00734); format: biochemical
CoV-HKU1 M^pro = molecular target: T4, CoV-HKU1 M^pro (Human coronavirus HKU1, UniProt P0C6X2); assay: biochemical
T4 construct: M^pro proteins from other human CoVs were also cloned, expressed in E. coli and purified by WuXi AppTec; host or cells: E. coli
T4 sequence (P0C6X2 3335-3637 limits assumed): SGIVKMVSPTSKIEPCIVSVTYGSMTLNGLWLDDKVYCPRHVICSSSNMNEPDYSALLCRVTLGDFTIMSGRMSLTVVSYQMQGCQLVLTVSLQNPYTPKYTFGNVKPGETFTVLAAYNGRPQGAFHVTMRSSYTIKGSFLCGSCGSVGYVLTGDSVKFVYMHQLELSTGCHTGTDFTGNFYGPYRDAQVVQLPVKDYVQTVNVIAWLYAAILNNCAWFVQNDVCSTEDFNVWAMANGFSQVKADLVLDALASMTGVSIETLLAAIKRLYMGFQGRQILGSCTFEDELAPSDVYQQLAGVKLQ

cathepsin L = cathepsin L (Homo sapiens, UniProt P07711); assay: biochemical
cathepsin L, sequence (P07711 114-333): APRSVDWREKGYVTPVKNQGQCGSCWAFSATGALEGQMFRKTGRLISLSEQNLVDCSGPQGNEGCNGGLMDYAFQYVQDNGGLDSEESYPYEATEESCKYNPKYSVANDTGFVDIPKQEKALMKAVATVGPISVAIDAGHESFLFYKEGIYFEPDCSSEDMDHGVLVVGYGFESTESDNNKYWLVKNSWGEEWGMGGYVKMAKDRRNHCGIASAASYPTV

[7] = system: SARS-CoV-2 BA.2.12.1 Omicron; assay: microbe, parasite or virus in culture; format: cell-based
CoV-OC43 M^pro = molecular target: T5, CoV-OC43 M^pro (Human coronavirus OC43, UniProt P0C6X6); assay: biochemical
T5 construct: M^pro proteins from other human CoVs were also cloned, expressed in E. coli and purified by WuXi AppTec; host or cells: E. coli
T5 sequence (P0C6X6 3247-3549 limits assumed): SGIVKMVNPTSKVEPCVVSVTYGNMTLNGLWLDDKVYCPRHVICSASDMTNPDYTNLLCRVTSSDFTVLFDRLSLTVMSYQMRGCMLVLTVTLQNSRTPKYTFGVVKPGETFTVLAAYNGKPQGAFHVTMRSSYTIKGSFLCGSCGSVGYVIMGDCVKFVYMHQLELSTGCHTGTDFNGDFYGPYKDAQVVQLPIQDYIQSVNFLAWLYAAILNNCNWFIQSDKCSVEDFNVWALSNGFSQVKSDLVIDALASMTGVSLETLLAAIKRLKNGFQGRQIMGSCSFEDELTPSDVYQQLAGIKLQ

SARS-CoV2 WT M^pro = molecular target: T6, SARS-CoV2 WT M^pro (Severe acute respiratory syndrome coronavirus 2, UniProt P0DTC1); format: biochemical, SARS-CoV-2
T6 construct: codon-optimized cDNA of SARS-CoV-2 M^pro (QIZ13716.1_ORF1a) was cloned into the pET28a vector; host or cells: E. coli

[8] = Severe acute respiratory syndrome coronavirus 2, read-out: EC50 Mean (SD)
[9] = Severe acute respiratory syndrome coronavirus 2, read-out: EC90 Mean (SD)

chymotrypsin C, sequence (Q99895 30-268): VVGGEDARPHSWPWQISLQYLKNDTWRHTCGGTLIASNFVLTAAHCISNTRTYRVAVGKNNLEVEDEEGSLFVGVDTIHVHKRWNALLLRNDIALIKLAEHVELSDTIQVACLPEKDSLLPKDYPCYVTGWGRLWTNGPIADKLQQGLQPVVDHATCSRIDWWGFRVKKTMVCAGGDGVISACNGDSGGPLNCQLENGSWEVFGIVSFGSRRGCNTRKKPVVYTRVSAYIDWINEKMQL

CC(C)C[C@@H](C(=O)N1C[C@]2(C[C@H]1C#N)C(=O)Nc1ccccc12)N(C)C(=O)c1cc2c(F)cc(F)c(F)c2[nH]1 [EDP-235]
effect on viral RNA decline or infectious viral load in nasal samples (SARS-CoV-2 [1]): failed to demonstrate the effect on viral RNA decline or infectious viral load in nasal samples

N#C[C@H](C[C@@H]1CCCNC1=O)NC(=O)[C@H](CC1CC1)NC(=O)c1cc2cccc(Cl)c2[nH]1 [pomotrelvir]
Ki (cathepsin B): 1270 nM
inhibitory activity (chymotrypsin C): no inhibitory activity was observed
IC50 (CoV-229E M^pro): 141 nM
inhibitory activity (elastase): no inhibitory activity was observed
EC50 (SARS-CoV-2 Delta; [8]): 251 nM
EC90 (SARS-CoV-2 Delta; [9]): 425 nM
EC50 [2, 8]: 256 nM
EC90 [2, 9]: 1270 nM
inhibitory activity (dipeptidyl peptidase IV): no inhibitory activity was observed
EC50 (SARS-CoV-2 Alpha; [8]): 95 nM
EC90 (SARS-CoV-2 Alpha; [9]): 144 nM
EC50 ([3]; Severe acute respiratory syndrome coronavirus 2, Huh-7, read-out: EC50 Mean (SD)): 31 nM
EC90 ([3]; Severe acute respiratory syndrome coronavirus 2, Huh-7, read-out: EC90 Mean (SD)): 170 nM
EC50 ([3]; read-out: Mean EC50 (SD)): 27 nM
EC90 ([3]; read-out: Mean EC90 (SD)): 150 nM
inhibitory activity (cathepsin D): no inhibitory activity was observed
EC90 (SARS-CoV-2 BA.2 Omicron; [9]): 668 nM
EC50 (SARS-CoV-2 BA.2 Omicron; read-out: EC50 Mean (SD)): 139 nM
EC50 (SARS-CoV-2 Mu; [8]): 73 nM
EC90 (SARS-CoV-2 Mu; [9]): 195 nM
EC90 (SARS-CoV-2 WA1 NLuc; Severe acute respiratory syndrome coronavirus 2, A549-ACE2, read-out: Mean EC90 (SD)): 114 nM
EC50 (SARS-CoV-2 WA1 NLuc; read-out: Mean EC50 (SD)): 23 nM
inhibitory activity (calpain1): no inhibitory activity was observed
inhibitory activity (caspase 3): no inhibitory activity was observed
EC50 (SARS-CoV-2 Epsilon; [8]): 195 nM
EC90 (SARS-CoV-2 Epsilon; [9]): 777 nM
primary endpoint: proportion of patients below the limit of detection by infectious virus assay on day 3 of treatment (SARS-CoV-2 [4]): did not meet the primary endpoint
EC50 [5, 8]: 244 nM
EC90 [5, 9]: 1120 nM
EC90 (CoV-229E; MRC5, read-out: Mean EC90 (SD)): 410 nM
EC50 (CoV-229E; read-out: Mean EC50 (SD)): 180 nM
EC50 (CoV-OC43; Huh-7, read-out: Mean EC50 (SD)): 380 nM
EC90 (CoV-OC43; Huh-7, read-out: Mean EC90 (SD)): 490 nM
alpha factor (SARS-CoV-2 M^pro): 10.4
Ki (cathepsin S): 445 nM
EC50 [6, 8]: 94 nM
EC90 [6, 9]: 213 nM
inhibitory activity (caspase-2): no inhibitory activity was observed
IC50 (CoV-NL63 M^pro): 206 nM
EC50 (SARS-CoV-2 AY.20 Delta; [8]): 374 nM
EC90 (SARS-CoV-2 AY.20 Delta; [9]): 672 nM
Ki (cathepsin K): 289 nM
inhibitory activity (thrombin): no inhibitory activity was observed
IC50 (CoV-HKU1 M^pro): 61 nM
Ki (cathepsin L): 7400 nM
EC50 [7, 8]: 60 nM
EC90 [7, 9]: 171 nM
IC50 (CoV-OC43 M^pro): 158 nM

GC376
IC50 (SARS-CoV2 WT M^pro): 20 nM
